# According to PMC9791658 (Journal of Medicinal Chemistry, 2022):
# How the values were obtained:
# 14-3-3ζ/GR_pT524 [1] = target: 14-3-3ζ/GR_pT524 (Homo sapiens, UniProt P04150+P63104); experiment: Fluorescence polarization; assay type: binding; conditions: for 14-3-3/GR PPI stabilization activity (in words): FP assay
# 14-3-3ζ/ERα_pT594 = 14-3-3ζ/ERα_pT594 (Homo sapiens, UniProt P03372+P63104); experiment: Fluorescence polarization; assay type: binding; conditions: FP assay
# Caco-2 cells = experiment: Permeability across Caco-2 cell monolayers; assay type: in vitro ADME; conditions: for permeability classification: Caco-2; for increase of permeability vs 1: Caco-2 Papp(A to B) relative to compound 1
# 14-3-3ζ/GR_pT524 [2] = target: T1, 14-3-3ζ/GR_pT524 (Homo sapiens, UniProt P63104); experiment: SPR assay of GR_pT524 with 14-3-3ζ in the absence and presence of FC-A; assay type: binding; conditions: FC-A 1 mM
# T1 sequence (P63104 1-245): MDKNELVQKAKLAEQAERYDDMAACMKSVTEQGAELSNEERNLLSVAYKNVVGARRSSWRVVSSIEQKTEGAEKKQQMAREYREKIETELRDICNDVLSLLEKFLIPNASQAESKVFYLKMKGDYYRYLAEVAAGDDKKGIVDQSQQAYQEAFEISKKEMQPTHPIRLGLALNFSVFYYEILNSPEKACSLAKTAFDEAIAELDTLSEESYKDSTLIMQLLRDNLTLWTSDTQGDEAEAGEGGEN
Compound,14-3-3/GR PPI stabilization activity (in words) (14-3-3ζ/GR_pT524 [1]),14-3-3/ERα PPI stabilization activity (in words) (14-3-3ζ/ERα_pT594),also measured
"Nc1ccc(C2C(C(=O)c3ccccc3)=C(O)C(=O)N2c2ccc(O)c(C(=O)O)c2)cc1 (centres unmarked) [Compound 17, 5-(2-(4-Aminophenyl)-3-benzoyl-4-hydroxy-5-oxo-2,5-dihydro-1H-pyrrol-1-yl)-2-hydroxybenzoic Acid]",loss of measurable activity,loss of measurable activity,–
"O=C(C1=C(O)C(=O)N(c2ccccc2O)C1c1ccc([N+](=O)[O-])cc1)c1ccccc1 (centres unmarked) [Compound 23, 4-Benzoyl-3-hydroxy-1-(2-hydroxyphenyl)-5-(4-nitrophenyl)-1,5-dihydro-2H-pyrrol-2-one]",only marginal activity,–,permeability classification (Caco-2 cells): medium permeability; increase of permeability vs 1 (Caco-2 cells): 5 fold
"O=C(C1=C(O)C(=O)N(c2ccc(O)cc2)C1c1ccc([N+](=O)[O-])cc1)c1ccccc1 (centres unmarked) [Compound 22, 4-Benzoyl-3-hydroxy-1-(4-hydroxyphenyl)-5-(4-nitrophenyl)-1,5-dihydro-2H-pyrrol-2-one]",only marginal activity,–,permeability classification (Caco-2 cells): medium permeability; increase of permeability vs 1 (Caco-2 cells): 3 fold
"O=C(C1=C(O)C(=O)N(c2ccc(O)c(C(=O)O)c2)[C@H]1c1ccc([N+](=O)[O-])cc1)c1ccccc1 [(S)-1, 5-(3-Benzoyl-4-hydroxy-2-(4-nitrophenyl)-5-oxo-2,5-dihydro-1H-pyrrol-1-yl)-2-hydroxybenzoic Acid]",–,completely inactive,–
"O=C(O)c1cc(N2C(=O)C(O)=C(c3ccccc3)C2c2ccc([N+](=O)[O-])cc2)ccc1O (single isomer, unassigned; (-)) [(−)-28, 2-Hydroxy-5-(3-hydroxy-5-(4-nitrophenyl)-2-oxo-4-phenyl-2,5-dihydro-1H-pyrrol-1-yl) benzoic Acid]",–,no 14-3-3/ERα PPI stabilization activity,–
"O=C(C1=C(O)C(=O)N(c2ccc(O)c(C(=O)O)c2)C1c1ccc([N+](=O)[O-])cc1)c1ccccc1 (centres unmarked) [Compound 1, 5-(3-Benzoyl-4-hydroxy-2-(4-nitrophenyl)-5-oxo-2,5-dihydro-1H-pyrrol-1-yl)-2-hydroxybenzoic Acid]",–,–,permeability classification (Caco-2 cells): low permeability; decrease in potency for 14-3-3/GR compared to 14-3-3/ERα (14-3-3ζ/GR_pT524 [1]; from EC1.2 values): approximately 2 fold
"C=CC(C)(C)OC[C@H]1O[C@H](O[C@@H]2C3=C([C@H](C)COC(C)=O)C[C@H](O)[C@]3(C)/C=C3/[C@@H](COC)CC[C@H]3[C@@H](C)[C@H]2O)[C@H](O)[C@@H](O)[C@@H]1O [FC-A, Fusicoccin A, reference compound]",does not stabilize,–,effect on the interaction between GR_pT524 and 14-3-3ζ (SPR) (14-3-3ζ/GR_pT524 [2]): does not stabilize
"O=C(C1=C(O)C(=O)N(c2ccc(O)c(C(=O)O)c2)C1c1ccc([N+](=O)[O-])cc1)c1cccc(OC(F)F)c1 (centres unmarked) [Compound 19, 5-(3-(3-(Difluoromethoxy)benzoyl)-4-hydroxy-2-(4-nitrophenyl)-5-oxo-2,5-dihydro-1H-pyrrol-1-yl)-2-hydroxybenzoic Acid]",abolished activity,abolished activity,–
"O=C(O)c1cc(N2C(=O)C(O)=C(c3ccccc3)C2c2ccc([N+](=O)[O-])cc2)ccc1O (centres unmarked) [Compound 28, 2-Hydroxy-5-(3-hydroxy-5-(4-nitrophenyl)-2-oxo-4-phenyl-2,5-dihydro-1H-pyrrol-1-yl) benzoic Acid]",–,inactive,–
"O=C(C1=C(O)C(=O)N(c2ccc(O)c(C(=O)O)c2)C1c1ccccc1)c1ccccc1 (centres unmarked) [Compound 21, 5-(3-Benzoyl-4-hydroxy-5-oxo-2-phenyl-2,5-dihydro-1H-pyrrol-1-yl)-2-hydroxybenzoic Acid]",loss of measurable activity,loss of measurable activity,–
"O=C(O)c1cc(N2C(=O)C(O)=C(c3ccccc3)C2c2ccc([N+](=O)[O-])cc2)ccc1O (single isomer, unassigned; (+)) [(+)-28, 2-Hydroxy-5-(3-hydroxy-5-(4-nitrophenyl)-2-oxo-4-phenyl-2,5-dihydro-1H-pyrrol-1-yl) benzoic Acid]",–,no 14-3-3/ERα PPI stabilization activity,–
